Results on 3 molecules are retold here after patent publication US8759315B2, “Methods for rejuvenating” (Viacell, LLC, priority 2003, dated 2014).

The subject of assay [1] is RBC. The assay can be described thus: Rejuvenation with D-ribose and phosphoenolpyruvate, DPG assay. It counts as cell-based. The note with it: six days at room temperature, then 15 mM D-ribose, 10 mM to 100 mM PEP or both, 37°, 30 minutes; day 0 about 2 μmol/ml (FIG. 3). As for the experimental part: (§1) The DPG assay was as follows: • To 2 mL Tris buffer with EDTA, was added 0.05 ml ATP 40 mM plus NADH 9.6 mM; 0.04 ml PGM (Sigma kit 665PA, Sigma, Inc. St. Louis, Mo.) and 0.1 ml RBC. The reaction mixture was allowed to equilibrate for five minutes at room temperature and the absorption at 339 nm wavelength was recorded. Next was added 0.02 ml PGM and 0.02 ml glycolate-2-phosphate. The reaction was allowed to proceed for 25 minutes and the absorption at 339 nm wavelength was recorded. The packed cell DPG equals (μmol/ml)×100 divided by the hematocrit.
The rejuvenation experiment of Example 4 was repeated adding the high energy glycolysis intermediate phosphoenolpyruvate (PEP). Samples were held at for six days at room temperature until DPG levels were barely detectable. At that point, 15 mM D-ribose, 10 mM to 100 mM PEP or both were added and the blood incubated at 37° for 30 minutes. […] Adding PEP gave some benefit, raising the DPG levels to nearly 1 μmol/ml. Ribose also raised levels to about 1 μmol/ml. The effect of ribose plus PEP was additive: levels exceeded 1.5 μmol/ml, nearly the levels on day 0.

In assay [2] the test system is Whole blood. The assay can be described thus: Rejuvenation of stored whole blood, DPG assay. In kind it is cell-based. As for the experimental part:
as §1
An experiment was devised to determine whether the DPG levels could be brought back to approximate initial levels, that is, whether the RBC could be rejuvenated. Whole blood with heparin as anticoagulant was held at room temperature for 6 days, at which time DPG levels were undetectable. D-ribose at 10 mM was added and the blood was incubated at 37° C. for thirty minutes. […] The incubation time will be extended to determine whether the DPG levels can be further increased.

Assay [3] concerns RBC. The assay can be described thus: Oxygen dissociation curve (P50) of stored and rejuvenated blood. In kind it is cell-based. The note with it: six-day CPD sample rejuvenated as for Example 3A (10 mM D-ribose, 37° C., thirty minutes). The text has this:
When the percent saturation of oxygen in blood is plotted against the partial pressure of oxygen (mmHg), the resulting curve is shown in FIG. 2. A shift to the right occurs when DPG is increased or pH is decreased. Consistent with the DPG experiments, the oxygen tension giving 50% saturation (P50) after six days storage in CPD was 43 mmHg. When this sample was rejuvenated as for Example 3A above, the P50 was 18.2 mmHg.

Assay [4] concerns RBC. The following applies: 42 days of storage at 4° C.; D-ribose: 15mM D-ribose and 10 mM phosphate added to CPD; cited from earlier work.

As for `C=C(OP(=O)(O)O)C(=O)O` [PEP, phosphoenolpyruvate], the “DPG levels after rejuvenation” value in assay [1] was “about 1 μmol/ml”.
Consider `OC[C@H]1O[C@@H](n2cnc3c(O)ncnc32)[C@H](O)[C@@H]1O` [inosine], for which the effect on rejuvenation entry in assay [2] (ribose reduced to one mM or increased to 100 mM, inosine substituted for ribose) is “equally beneficial effects on rejuvenation”.
On to `O=C[C@H](O)[C@H](O)[C@H](O)CO` [D-ribose], for which, in assay [2] (whole blood with heparin held 6 days at room temperature (DPG undetectable), 10 mM D-ribose, 37° C., thirty minutes), the “DPG after rejuvenation, as part of the usual initial value” was “about one-third”. In assay [3], the “oxygen tension giving 50% saturation (P50)” value was 18.2 mmHg. Further, in assay [1], the “DPG levels after rejuvenation” value is recorded as “about 1 μmol/ml”. The “2,3 DPG level maintained, of its initial level” value in assay [4] was “about 50%”.
